Test results published in patent US11173160B2 (UNIVERSITY OF PITTSBURGH—OF THE COMMONWEALTH SYSTEM OF …, priority 2019, dated 2021).
Read-outs that look alike come from different tables or passages of the source.

How the values were obtained:
[1] = test system: DIPG-007, DIPG-IV, and SF8628 cells; experiment: direct Trypan-Blue automated cell count; format: cell-based, human; details: 50 nM of TG02, 9 days of treatment, vs vehicle
Experimental: FIGS. 5A-5K provide that pharmacological inhibition of ERK5 triggered cell death and apoptosis in DIPG cells. […] (5C-5E).
Direct cell counts were performed using the Countess II FL Automated Cell Counter (ThermoFisher Scientific). Alamar blue viability (ThermoFisher Scientific) and the 5-bromo-2′-deoxyuridine (BrdU) incorporated cell proliferation assay (Cell Signaling Technology Cat #6813) were performed using the manufacturer's standard protocol. EC50 curve analysis was performed using raw fluorescent Alamar blue values that were inputted into PRISM 7.0. Drug concentrations were log 10 transformed and values normalized to percent viability with respect to vehicle treated cells. EC50 values were interpolated from a log inhibitor vs. normalized response with variable slope using a least square fit model.

[2] = test system: MYC in DIPG-IV and SF8628 cells; experiment: Western blot of phospho MYC S62 and total MYC; format: cell-based, human; details: TG02 100 nM
Experimental: FIGS. 6A-6H provide that ERK5 inhibition reduced MYC protein stability. (6A) Schematic of identifying differentially expressed phospho-proteins in DIPG-IV cells expressing ERK5 and ERK5 knockdown. (6B) Ratio of phospho:total protein changes in ERK5 knockdown versus ERK5 control DIPG-IV cells. […] (6D) Western blot of MYC in DIPG-IV cells treated with Dox and MG132 (10 uM). (6E) Immunoprecipitation of MYC and ERK5 followed by western blot of ERK5 and MYC. […] (6G) Western blot of DIPG cells re-transfected with constitutively active MYC S62D in presence of ERK5 loss. (6H) Cell doubling times of control and ERK5 knockdown DIPG cells and the effect of MYC S62D rescue. SF8628 cells (left) and DIPG-IV cells (right).
Cell pellets were lysed in PLC lysis buffer containing protease and phosphatase inhibitors (Roche Inc.). Protein lysates were quantified using the bicinchoninic acid (BCA) assay (Pierce Chemical Co., Rockford, Ill.). 30 μg of total protein lysate was loaded in 10% SDS-PAGE gels and electrophoresed. Proteins were transferred to PVDF membranes using a semi-dry transfer apparatus (Bio-Rad). […] Binding was detected using Chemiluminescence Reagent Plus (PerkinElmer Inc., MA, USA).

[3] = test system: DIPG-13p orthotopic xenografts; experiment: DIPG-13p orthotopic xenograft model; format: in vivo, mice; details: for survival vs vehicle: 20 mg/kg/day for 5 days, 2 days rest
Experimental: All animal procedures were carried out ethically according to animal user protocols approved by Institutional Animal Care Committee (IACUC). 4-6 week-old non-obese diabetic severe combined immune deficiency male or female mice (NOD-SCID-Prkdc^scid) were injected with 1×10^5 SU-DIPG-13p cells or 1×10^5 SF8628 DIPG cells. Cells were re-suspended in 2 μl of PBS and injected into the pons/midbrain using a stereotactic frame (Stoelting) and automated cell injector (Stoelting) with cells delivered over 4 minutes. Coordinates were as follows from the Lambda suture (x=0.8 mm, y=−0.8 mm, z=−5.0 mm). […] Mice were treated for two cycles (5 days on, with two days off per cycle). Mice were sacrificed at sign of neurological duress and brains were extracted and fixed in 4% PFA.
Also, the present disclosure used two established cell lines derived from transgenic mouse models of DIPG. Both lines are p53 null and express PDGFB, differing only in their H3.3 mutation status.
In a second DIPG mouse model, mice were injected with 1×10^5 DIPG13p cells in the midbrain of NOD-SCID gamma mice.
For each cycle, the compounds were administered 20 mg/kg/day for 5 days, followed with 2 days of rest period. Each mice received 2 cycles of treatment.

[4] = test system: normal astrocytes or neural stem cells; experiment: viability of normal cells treated with TG02; format: cell-based, human; details: nM ranges
Text: Brain gliomas express high levels of ERK5 (FIG. 29).

Lck = Lck (Homo sapiens, UniProt P06239); details: Source Millipore; 10-point titration in duplicates, done once; cited from earlier work
JAK2 = JAK2 (Homo sapiens, UniProt O60674); details: Source Invitrogen; 10-point titration in duplicates, done once; cited from earlier work
Sequence of JAK2 (O60674 whole entry): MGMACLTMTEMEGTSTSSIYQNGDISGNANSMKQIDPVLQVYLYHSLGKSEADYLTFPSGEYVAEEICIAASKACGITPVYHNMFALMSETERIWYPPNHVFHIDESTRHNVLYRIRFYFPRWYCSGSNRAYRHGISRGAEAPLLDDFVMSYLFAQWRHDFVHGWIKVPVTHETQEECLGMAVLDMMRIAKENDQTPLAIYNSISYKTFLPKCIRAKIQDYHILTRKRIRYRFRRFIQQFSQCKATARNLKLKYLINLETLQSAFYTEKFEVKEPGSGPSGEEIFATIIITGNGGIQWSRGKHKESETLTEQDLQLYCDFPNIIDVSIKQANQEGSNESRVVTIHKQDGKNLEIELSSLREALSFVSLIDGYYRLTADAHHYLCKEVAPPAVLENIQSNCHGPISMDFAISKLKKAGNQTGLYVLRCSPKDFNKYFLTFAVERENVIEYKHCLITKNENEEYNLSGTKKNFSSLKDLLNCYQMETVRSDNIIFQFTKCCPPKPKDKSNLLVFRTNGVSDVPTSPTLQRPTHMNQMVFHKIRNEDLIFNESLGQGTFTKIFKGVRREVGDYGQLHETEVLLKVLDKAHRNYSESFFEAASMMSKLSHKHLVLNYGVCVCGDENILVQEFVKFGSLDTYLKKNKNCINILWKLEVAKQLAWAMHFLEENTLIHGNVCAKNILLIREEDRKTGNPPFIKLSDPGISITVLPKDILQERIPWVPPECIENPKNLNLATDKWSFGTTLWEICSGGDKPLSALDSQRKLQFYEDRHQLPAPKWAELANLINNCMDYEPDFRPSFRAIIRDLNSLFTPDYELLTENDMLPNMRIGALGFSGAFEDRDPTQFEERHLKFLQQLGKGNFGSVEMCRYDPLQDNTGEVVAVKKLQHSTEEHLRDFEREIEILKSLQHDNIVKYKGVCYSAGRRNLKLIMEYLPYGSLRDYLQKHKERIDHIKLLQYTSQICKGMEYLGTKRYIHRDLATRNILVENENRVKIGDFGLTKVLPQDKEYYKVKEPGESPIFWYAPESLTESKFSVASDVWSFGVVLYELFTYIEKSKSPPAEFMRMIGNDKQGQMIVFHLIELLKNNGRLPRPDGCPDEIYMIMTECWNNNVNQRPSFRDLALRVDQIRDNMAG

Fms = Fms (Homo sapiens, UniProt P07333); details: Source Millipore; 10-point titration in duplicates, done once; cited from earlier work
Abl = Abl (Homo sapiens, UniProt P00519); details: cited from earlier work
ALK = ALK (Homo sapiens, UniProt Q9UM73); details: cited from earlier work
Sequence of ALK (Q9UM73 19-1620): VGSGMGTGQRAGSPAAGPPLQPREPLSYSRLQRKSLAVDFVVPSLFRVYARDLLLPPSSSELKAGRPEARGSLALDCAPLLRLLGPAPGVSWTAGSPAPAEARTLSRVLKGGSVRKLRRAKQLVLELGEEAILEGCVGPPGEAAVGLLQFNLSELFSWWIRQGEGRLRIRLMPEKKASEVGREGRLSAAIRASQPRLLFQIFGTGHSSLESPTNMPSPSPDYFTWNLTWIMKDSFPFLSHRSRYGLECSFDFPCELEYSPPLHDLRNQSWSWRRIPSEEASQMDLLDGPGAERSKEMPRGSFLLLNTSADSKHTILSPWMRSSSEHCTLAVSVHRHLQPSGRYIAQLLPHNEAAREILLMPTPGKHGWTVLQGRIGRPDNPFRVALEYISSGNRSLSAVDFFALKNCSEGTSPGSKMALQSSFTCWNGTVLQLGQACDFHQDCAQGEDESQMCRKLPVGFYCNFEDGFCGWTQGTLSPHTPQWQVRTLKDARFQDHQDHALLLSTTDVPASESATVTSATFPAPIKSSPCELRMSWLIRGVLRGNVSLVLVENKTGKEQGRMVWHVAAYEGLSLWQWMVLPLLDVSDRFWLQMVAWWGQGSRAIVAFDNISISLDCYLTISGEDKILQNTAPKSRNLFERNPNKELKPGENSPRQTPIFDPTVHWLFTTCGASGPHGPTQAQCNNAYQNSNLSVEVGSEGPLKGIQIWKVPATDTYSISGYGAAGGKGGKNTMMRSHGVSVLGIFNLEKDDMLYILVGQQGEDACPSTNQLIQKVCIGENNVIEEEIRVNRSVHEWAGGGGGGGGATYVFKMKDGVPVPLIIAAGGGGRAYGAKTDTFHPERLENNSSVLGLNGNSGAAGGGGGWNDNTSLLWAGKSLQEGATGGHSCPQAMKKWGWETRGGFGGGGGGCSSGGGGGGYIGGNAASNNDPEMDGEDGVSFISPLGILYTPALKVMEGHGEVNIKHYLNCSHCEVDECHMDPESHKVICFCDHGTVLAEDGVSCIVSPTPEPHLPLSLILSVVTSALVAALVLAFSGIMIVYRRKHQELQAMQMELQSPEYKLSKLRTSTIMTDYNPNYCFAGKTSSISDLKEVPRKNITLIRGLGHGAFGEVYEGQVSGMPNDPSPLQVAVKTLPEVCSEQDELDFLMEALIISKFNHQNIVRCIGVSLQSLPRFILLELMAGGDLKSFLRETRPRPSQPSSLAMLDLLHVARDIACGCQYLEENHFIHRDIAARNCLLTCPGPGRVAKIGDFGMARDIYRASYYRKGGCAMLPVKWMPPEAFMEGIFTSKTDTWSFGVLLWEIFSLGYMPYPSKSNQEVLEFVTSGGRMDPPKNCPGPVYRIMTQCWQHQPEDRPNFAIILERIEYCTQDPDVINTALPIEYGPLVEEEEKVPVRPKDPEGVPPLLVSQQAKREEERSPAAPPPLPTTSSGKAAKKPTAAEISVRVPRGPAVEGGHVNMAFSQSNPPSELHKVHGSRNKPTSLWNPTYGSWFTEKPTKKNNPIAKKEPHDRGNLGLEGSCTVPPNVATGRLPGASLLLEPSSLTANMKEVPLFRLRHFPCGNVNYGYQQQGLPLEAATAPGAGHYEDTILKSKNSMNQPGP

FAK = FAK (Homo sapiens, UniProt Q05397); details: cited from earlier work
Sequence of FAK (Q05397 whole entry): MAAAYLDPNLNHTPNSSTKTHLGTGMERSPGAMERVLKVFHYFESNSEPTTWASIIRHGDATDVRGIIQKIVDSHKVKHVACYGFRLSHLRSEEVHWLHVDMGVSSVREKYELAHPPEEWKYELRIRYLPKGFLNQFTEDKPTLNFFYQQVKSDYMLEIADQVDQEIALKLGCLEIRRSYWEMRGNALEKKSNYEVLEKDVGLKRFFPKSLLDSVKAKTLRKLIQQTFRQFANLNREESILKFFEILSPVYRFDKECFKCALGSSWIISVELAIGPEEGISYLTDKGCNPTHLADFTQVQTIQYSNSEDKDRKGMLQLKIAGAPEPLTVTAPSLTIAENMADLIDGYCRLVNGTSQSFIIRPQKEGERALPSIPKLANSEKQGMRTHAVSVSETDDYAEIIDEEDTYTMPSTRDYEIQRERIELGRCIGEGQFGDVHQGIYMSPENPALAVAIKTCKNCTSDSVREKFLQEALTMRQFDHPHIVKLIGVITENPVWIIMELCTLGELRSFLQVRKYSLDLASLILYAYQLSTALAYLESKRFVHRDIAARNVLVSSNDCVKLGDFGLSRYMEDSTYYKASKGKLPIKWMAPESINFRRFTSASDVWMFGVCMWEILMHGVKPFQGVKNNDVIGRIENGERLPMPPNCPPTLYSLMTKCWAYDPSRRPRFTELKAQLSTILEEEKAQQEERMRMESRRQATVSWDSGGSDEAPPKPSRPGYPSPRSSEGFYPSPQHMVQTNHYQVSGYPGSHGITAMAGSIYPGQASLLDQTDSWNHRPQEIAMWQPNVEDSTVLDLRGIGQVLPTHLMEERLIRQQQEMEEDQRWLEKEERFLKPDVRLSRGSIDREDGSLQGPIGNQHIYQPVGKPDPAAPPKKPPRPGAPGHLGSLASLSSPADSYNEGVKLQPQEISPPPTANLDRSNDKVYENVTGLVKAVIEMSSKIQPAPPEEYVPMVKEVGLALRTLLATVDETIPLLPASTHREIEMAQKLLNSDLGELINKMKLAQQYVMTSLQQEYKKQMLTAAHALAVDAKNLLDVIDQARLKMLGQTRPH

InsR = InsR (Homo sapiens, UniProt P06213); details: cited from earlier work
JNK1 = JNK1 (Homo sapiens, UniProt P45983); details: cited from earlier work
Pim-3 = Pim-3 (Homo sapiens, UniProt Q86V86); details: cited from earlier work
TAK1 = TAK1 (Homo sapiens, UniProt O43318); details: cited from earlier work
Sequence of TAK1 (O43318 1-303 limits assumed): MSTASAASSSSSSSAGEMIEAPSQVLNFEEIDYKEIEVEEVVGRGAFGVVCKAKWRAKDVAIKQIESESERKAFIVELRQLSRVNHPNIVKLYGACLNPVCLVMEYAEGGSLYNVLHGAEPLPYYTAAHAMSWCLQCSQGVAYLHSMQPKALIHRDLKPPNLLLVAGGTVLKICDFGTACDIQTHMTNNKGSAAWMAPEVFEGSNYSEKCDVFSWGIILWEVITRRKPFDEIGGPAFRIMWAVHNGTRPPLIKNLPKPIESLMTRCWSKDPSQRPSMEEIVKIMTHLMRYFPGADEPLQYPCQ

TTK = TTK (Homo sapiens, UniProt P33981); details: cited from earlier work
CYP3A4 = CYP3A4 (Homo sapiens, UniProt P08684); details: cited from earlier work
Sequence of CYP3A4 (P08684 whole entry): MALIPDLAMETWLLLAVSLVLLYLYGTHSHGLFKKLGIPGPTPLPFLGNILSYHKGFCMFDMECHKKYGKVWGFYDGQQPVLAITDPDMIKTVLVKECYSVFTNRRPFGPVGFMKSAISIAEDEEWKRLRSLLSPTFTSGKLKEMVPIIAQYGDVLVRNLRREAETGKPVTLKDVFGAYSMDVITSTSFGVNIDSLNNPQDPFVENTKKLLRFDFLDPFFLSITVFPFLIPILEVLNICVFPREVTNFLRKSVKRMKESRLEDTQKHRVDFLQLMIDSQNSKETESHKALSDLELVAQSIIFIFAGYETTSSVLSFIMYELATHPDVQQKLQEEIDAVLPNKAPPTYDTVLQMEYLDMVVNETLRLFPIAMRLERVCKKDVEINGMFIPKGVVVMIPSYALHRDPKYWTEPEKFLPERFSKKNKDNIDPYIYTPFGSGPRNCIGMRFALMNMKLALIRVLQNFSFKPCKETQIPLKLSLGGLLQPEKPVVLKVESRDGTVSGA

[5] = cited from earlier work
[6] = cited from earlier work; remark: listed apart in the source
[7] = human pharmacokinetics of TG02 as a single agent

CN1C/C=C/CCOc2cccc(c2)-c2ccnc(n2)Nc2cccc(c2)C1 [TG02, (16E)-14-methyl-20-oxa-5,7,14,27-tetraazatetracyclo[19.3.1.12,6.18,12]heptacosa-1(25),2(27),3,5,8(26),9,11,16,21,23-decaene]
cell number [1]: significant decreases in cell number
phospho MYC (S62) and total MYC [2]: reduced phospho and total MYC
K167 expression (proliferation marker) ([3]; 20 mg/kg, 2 cycles, vs vehicle): significantly reduced K167 expression
survival vs vehicle ([3]; 2 cycles): statistically significant increased median survival
survival vs vehicle ([3]; 2 cycles, listed as TG02 obtained from Adastra Pharmaceuticals): extended survival
median survival ([3]; TG02 20 mg/kg, 2 cycles of 5 days on 2 days off, vehicle 22.5 days): 40 days
toxicity to normal cells [4]: not toxic
IC50 (Lck): 11 nM
IC50 (JAK2): 19 nM
IC50 (Fms): 27 nM
inhibition at 100 nm (Abl): less than 50%
inhibition at 100 nm (ALK): less than 50%
inhibition at 100 nm (FAK): less than 50%
inhibition at 100 nm (InsR): less than 50%
inhibition at 100 nm (JNK1): less than 50%
inhibition at 100 nm (Pim-3): less than 50%
inhibition at 100 nm (TAK1): less than 50%
inhibition at 100 nm (TTK): less than 50%
substrate of CYP3A4 (CYP3A4): substrate
peak concentration in plasma ([5]; adults, single dose of 200 mg): 4,000 ng/mL
Cmax and AUC0-t dose dependence ([5]; doses between 10 and 200 mg): dose-proportional increase
t1/2 ([5]; in vivo): approximately 18 hrs
most common toxicities (≥20%) ([6]; adults with acute leukemia): nausea, vomiting, fatigue, abdominal pain, diarrhea, constipation, and hypophosphatemia
serious adverse events ([6]; adults with hematologic malignancies): nausea and vomiting (grades 2 and 3), fatigue (grade 3), altered mental status (grade 2), rash (grade 3), thrombocytopenia (grade 4), and neutropenic fever with sepsis (grade 3)
maximum tolerated dose (MTD) ([6]; intermittent TG02 with fixed doses of carfilzomib, twice a week for 21 of 28 days): 250 mg per dose
peak concentration in plasma ([7]; adults, single dose of 200 mg, equivalent): 11,000 nM
Cmax in adults over in vitro IC50 in patient-derived DIPG cell lines ([7]; in vivo): ~2 logs
